Reference: patent US20240209028A1, “CNP COMPOUNDS” (priority 2022, published 2024)
Starred links: 1 amine or outer side, 2 acyl side, 3 side chain; linkers in the order of their positions; H or OH if unused. Positions of bridges follow the written chain, without caps; N, C: chain ends. Residues, ends and D or L forms follow the SMILES beside them. *: point of attachment. C18 diacid = O=C(O)CCCCCCCCCCCCCCCCC(=O)*; γGlu = O=C(O)[C@H](CCC(=O)[*:2])N[*:1]; AEEA = NCCOCCOCC(=O)O

Legend:
[1] = High-Molecular-Weight-Protein (HMWP) formation by SEC-UPLC; format: physicochemical; details: increase over two weeks at 37° C.
Outline: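 Formulations at pH 4.0 or 6.5 incubated quiescently for two weeks at 37 °C; HMWP (peaks eluting before monomer, % of total peptide area) measured by SEC-UPLC, pH 2.4 mobile phase with 50% isopropanol, 50 °C, UV 215 nm. Value is HMWP increase, normalized to two weeks if needed.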

[2] = CNP local tolerance study in LYD pigs (s.c. injection, histopathology); format: in vivo, domestic LYD pig; details: for assessment for human subcutaneous administration: based on pig local tolerance
Outline: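 Domestic pigs dosed s.c. mid-back, 100 or 200 μl at approx. 4400 μM, in phosphate pH 6.5 or acetate pH 4.0 buffers with glycerol or propylene glycol; saline as negative control. Sites excised 4 or 5 days post injection, H&E sections graded on 5-level scale; necrosis used as marker.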

[3] = Thioflavin T (ThT) assay: lagtime and peptide recovery; format: physicochemical; details: assay terminated after 45 hours; for LagTime (h) at pH 6.5: ThT assay, pH 6.5, 37° C.; for LagTime (h) at pH 4.0: ThT, 37° C., shaking
Outline: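 ThT (final about 1 μM) was added to peptide supernatants at pH 4.0 and 6.5 and incubated at 37 °C with orbital shaking for 45 h. Fluorescence (ex 444/em 485 nm) was read every 20 min, and lag-time was taken as the time to onset of signal rise. Recovery is the RP-UPLC (215 nm) total peak area after vs. before incubation.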

[4] = 5 days after subcutaneous injections in the pig

CC[C@H](C)[C@@H]1NC(=O)[C@H](CCCNC(=N)N)NC(=O)[C@H](CC(=O)O)NC(=O)[C@H](CC(C)C)NC(=O)[C@@H]2CCCN2C(=O)[C@H](CC(C)C)NC(=O)CNC(=O)[C@H](Cc2ccccc2)NC(=O)[C@@H](NC(=O)CNC(=O)[C@H](CCC(N)=O)NC(=O)[C@H](CO)NC(=O)[C@H](CC(C)C)NC(=O)CNC(=O)[C@H](CCCCN)NC(=O)[C@H](CCCCN)NC(=O)[C@H](CCC(N)=O)NC(=O)[C@H](C)NC(=O)CNC(=O)[C@H](CCCCN)NC(=O)[C@H](Cc2ccc(O)cc2)NC(=O)[C@H](CCCCN)NC(=O)[C@H](CCCNC(=N)N)NC(=O)[C@H](C)NC(=O)COCCOCCNC(=O)COCCOCCNC(=O)COCCOCCNC(=O)COCCOCCNC(=O)CC[C@H](NC(=O)CC[C@H](NC(=O)CC[C@H](NC(=O)CC[C@H](NC(=O)CC[C@H](NC(=O)CCCCCCCCCCCCCCCCC(=O)O)C(=O)O)C(=O)O)C(=O)O)C(=O)O)C(=O)O)CSSC[C@@H](C(=O)O)NC(=O)CNC(=O)[C@H](CC(C)C)NC(=O)CNC(=O)[C@H](CO)NC(=O)[C@H](CC(C)C)NC(=O)[C@H](CO)NC(=O)CNC1=O [compound 9407] ({C18 diacid-γGlu-γGlu-γGlu-γGlu-γGlu-AEEA-AEEA-AEEA-AEEA}-ARKYKGAQKKGLSQGCFGLPLDRIGSLSGLGC-OH; disulfide 16-32)
2-Week HMWP formation at pH 6.5 (%), % relative to total peak area [1]: 12%
local subcutaneous necrosis [2, 4]: no to minimal
assessment for human subcutaneous administration [2]: acceptable
LagTime (h) at pH 6.5 [3]: 45 h

CC[C@H](C)[C@@H]1NC(=O)[C@H](CCCNC(=N)N)NC(=O)[C@H](CC(=O)O)NC(=O)[C@H](CC(C)C)NC(=O)[C@@H]2CCCN2C(=O)[C@H](CC(C)C)NC(=O)CNC(=O)[C@H](Cc2ccccc2)NC(=O)[C@@H](NC(=O)CNC(=O)[C@H](CCC(N)=O)NC(=O)[C@H](CO)NC(=O)CNC(=O)CNC(=O)[C@H](CCCCN)NC(=O)[C@H](CCCCN)NC(=O)[C@H](CCC(N)=O)NC(=O)[C@H](C)NC(=O)CNC(=O)[C@H](CCCCN)NC(=O)[C@H](Cc2ccc(O)cc2)NC(=O)COCCOCCNC(=O)COCCOCCNC(=O)COCCOCCNC(=O)COCCOCCNC(=O)CC[C@H](NC(=O)CC[C@H](NC(=O)CCCCCCCCCCCCCCCCC(=O)O)C(=O)O)C(=O)O)CSSC[C@@H](C(=O)O)NC(=O)CNC(=O)[C@H](CC(C)C)NC(=O)CNC(=O)[C@H](CO)NC(=O)[C@H](CC(C)C)NC(=O)[C@H](CO)NC(=O)CNC1=O [compound 9435] ({C18 diacid-γGlu-γGlu-AEEA-AEEA-AEEA-AEEA}-YKGAQKKGGSQGCFGLPLDRIGSLSGLGC-OH; disulfide 13-29; C-terminus assumed)
2-Week HMWP formation at pH 4.0 (%), % relative to total peak area [1]: 1.07%
2-Week HMWP formation at pH 6.5 (%), % relative to total peak area [1]: 1.93%
local subcutaneous necrosis [2, 4]: minimal to mild
assessment for human subcutaneous administration [2]: acceptable
LagTime (h) at pH 6.5 [3]: 45 h
LagTime (h) at pH 4.0 [3]: 45 h

CC[C@H](C)[C@@H]1NC(=O)[C@H](CCCNC(=N)N)NC(=O)[C@H](CC(=O)O)NC(=O)[C@H](CC(C)C)NC(=O)[C@@H]2CCCN2C(=O)[C@H](CC(C)C)NC(=O)CNC(=O)[C@H](Cc2ccccc2)NC(=O)[C@@H](NC(=O)CNC(=O)[C@H](CCC(N)=O)NC(=O)[C@H](CO)NC(=O)[C@H](CC(C)C)NC(=O)CNC(=O)[C@H](CCCCN)NC(=O)[C@H](CCCCN)NC(=O)[C@H](CCC(N)=O)NC(=O)[C@H](C)NC(=O)CNC(=O)[C@H](CCCCN)NC(=O)[C@H](Cc2ccc(O)cc2)NC(=O)COCCOCCNC(=O)COCCOCCNC(=O)COCCOCCNC(=O)COCCOCCNC(=O)CC[C@H](NC(=O)CC[C@H](NC(=O)CC[C@H](NC(=O)CCCCCCCCCCCCCCCCC(=O)O)C(=O)O)C(=O)O)C(=O)O)CSSC[C@@H](C(=O)O)NC(=O)CNC(=O)[C@H](CC(C)C)NC(=O)CNC(=O)[C@H](CO)NC(=O)[C@H](CC(C)C)NC(=O)[C@H](CO)NC(=O)CNC1=O [compound 9480] ({C18 diacid-γGlu-γGlu-γGlu-AEEA-AEEA-AEEA-AEEA}-YKGAQKKGLSQGCFGLPLDRIGSLSGLGC-OH; disulfide 13-29)
2-Week HMWP formation at pH 6.5 (%), % relative to total peak area [1]: 2.65%
local subcutaneous necrosis [2, 4]: no
assessment for human subcutaneous administration [2]: acceptable
LagTime (h) at pH 6.5 [3]: 45 h

CC[C@H](C)[C@@H]1NC(=O)[C@H](CCCNC(=N)N)NC(=O)[C@H](CC(=O)O)NC(=O)[C@H](CC(C)C)NC(=O)[C@@H]2CCCN2C(=O)[C@H](CC(C)C)NC(=O)CNC(=O)[C@H](Cc2ccccc2)NC(=O)[C@@H](NC(=O)CNC(=O)[C@H](CO)NC(=O)[C@H](CO)NC(=O)[C@H](CC(C)C)NC(=O)CNC(=O)[C@H](CCCCN)NC(=O)[C@H](CCCCN)NC(=O)[C@H](CCC(N)=O)NC(=O)[C@H](C)NC(=O)CNC(=O)[C@H](CCCCN)NC(=O)[C@H](Cc2ccc(O)cc2)NC(=O)[C@H](CCCCN)NC(=O)[C@H](CCCNC(=N)N)NC(=O)[C@H](C)NC(=O)[C@H](CCC(N)=O)NC(=O)[C@@H]2CCCN2C(=O)[C@H](Cc2c[nH]cn2)NC(=O)[C@H](CCC(=O)O)NC(=O)[C@H](CCC(N)=O)NC(=O)CC[C@H](NC(=O)CC[C@H](NC(=O)CC[C@H](NC(=O)CC[C@H](NC(=O)CC[C@H](NC(=O)CCCCCCCCCCCCCCCCC(=O)O)C(=O)O)C(=O)O)C(=O)O)C(=O)O)C(=O)O)CSSC[C@@H](C(=O)O)NC(=O)CNC(=O)[C@H](CC(C)C)NC(=O)CNC(=O)[C@H](CO)NC(=O)[C@H](CC(C)C)NC(=O)[C@H](CO)NC(=O)CNC1=O [compound 9482] ({C18 diacid-γGlu-γGlu-γGlu-γGlu-γGlu}-QEHPQARKYKGAQKKGLSSGCFGLPLDRIGSLSGLGC-OH; disulfide 21-37)
2-Week HMWP formation at pH 6.5 (%), % relative to total peak area [1]: 1.96%
local subcutaneous necrosis [2, 4]: no
assessment for human subcutaneous administration [2]: acceptable
LagTime (h) at pH 6.5 [3]: 45 h

CC[C@H](C)[C@@H]1NC(=O)[C@H](CCCNC(=N)N)NC(=O)[C@H](CCC(=O)O)NC(=O)[C@H](CC(C)C)NC(=O)[C@@H]2CCCN2C(=O)[C@H](CC(C)C)NC(=O)CNC(=O)[C@H](Cc2ccccc2)NC(=O)[C@@H](NC(=O)CNC(=O)[C@H](CO)NC(=O)[C@H](CO)NC(=O)[C@H](CC(C)C)NC(=O)CNC(=O)[C@H](CCCCN)NC(=O)[C@H](CCCCN)NC(=O)[C@H](CCC(N)=O)NC(=O)[C@H](C)NC(=O)CNC(=O)[C@H](CCCCN)NC(=O)[C@H](Cc2ccc(O)cc2)NC(=O)[C@H](CCCCN)NC(=O)[C@H](CCCNC(=N)N)NC(=O)[C@H](C)NC(=O)[C@H](CCC(N)=O)NC(=O)[C@@H]2CCCN2C(=O)[C@H](Cc2c[nH]cn2)NC(=O)[C@H](CCC(=O)O)NC(=O)[C@H](CCC(N)=O)NC(=O)CC[C@H](NC(=O)CC[C@H](NC(=O)CC[C@H](NC(=O)CC[C@H](NC(=O)CCCCCCCCCCCCCCCCC(=O)O)C(=O)O)C(=O)O)C(=O)O)C(=O)O)CSSC[C@@H](C(=O)O)NC(=O)CNC(=O)[C@H](CC(C)C)NC(=O)CNC(=O)[C@H](CO)NC(=O)[C@H](CC(C)C)NC(=O)[C@H](CO)NC(=O)CNC1=O [compound 9483] ({C18 diacid-γGlu-γGlu-γGlu-γGlu}-QEHPQARKYKGAQKKGLSSGCFGLPLERIGSLSGLGC-OH; disulfide 21-37)
2-Week HMWP formation at pH 4.0 (%), % relative to total peak area [1]: 3.0%
local subcutaneous necrosis ([2]; pig, in vivo, sc): no to moderate
LagTime (h) at pH 4.0 [3]: 45 h
